Results from ChEMBL document CHEMBL3739288, “Dimeric Octaketide Spiroketals from the Jellyfish-Derived Fungus Paecilomyces variotii J08NF-1” (2015).
Values after ≈ are worked out from the molar mass of the structure shown.

What was measured:
Type in all cases: functional
[1] = system: Streptococcus iniae; assay: Antibacterial activity against Streptococcus iniae after 24 hrs by broth microdilution method
[2] = system: Staphylococcus aureus; assay: Antibacterial activity against Staphylococcus aureus SG511 after 24 hrs by broth microdilution method; details: SG511, 24 h
[3] = system: Vibrio ichthyoenteri; assay: Antibacterial activity against Vibrio ichthyoenteri after 24 hrs by broth microdilution method

CCCCCCCCC(=O)c1cccc2c1C=C(CCCCCCC)[C@@]1(OCc3c(O)cccc31)O2
MIC [1]: > 40 µg/mL
MIC [2]: > 40 µg/mL
MIC [3]: > 40 µg/mL

CCCCCCCCC(=O)c1cccc2c1C=C(CCCCCCC)C1(OCc3c(O)cccc31)O2 (racemic)
MIC [1]: > 40 µg/mL
MIC [2]: > 40 µg/mL
MIC [3]: 40 µg/mL (≈ 81.5 µM)

CN(C)[C@@H]1C(O)=C(C(N)=O)C(=O)[C@@]2(O)C(=O)C3=C(O)c4c(O)cccc4[C@@](C)(O)[C@H]3[C@H](O)[C@@H]12
MIC [1]: 2.5 µg/mL (≈ 5.43 µM)
MIC [3]: 0.16 µg/mL (≈ 0.347 µM)

CN(C)[C@@H]1C(O)=C(C(N)=O)C(=O)[C@@]2(O)C(O)=C3C(=O)c4c(O)cccc4[C@@](C)(O)[C@H]3C[C@@H]12 [TETRACYCLINE]
MIC [2]: 0.16 µg/mL (≈ 0.36 µM)

CCCCCCCCC(=O)c1cccc2c1C=C(CCCCCCC)[C@]1(OCc3c(O)cccc31)O2
MIC [1]: > 40 µg/mL
MIC [2]: > 40 µg/mL
MIC [3]: > 40 µg/mL
